The values that follow come from patent publication US10975056B2 (GlaxoSmithKline Intellectual Property Development Limited, priority 2016, dated 2021).

Experiment [1] concerns erythroid progenitor cells (EPCs). In words: Fetal hemoglobin (HbF) ELISA in day 7 erythroid progenitor cells.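 Note: for fetal hemoglobin induction normalized to vehicle-treated cells.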 The experiment is classed as cell-based, human. Conditions: Homo sapiens, Erythroid progenitor cell, HbF ELISA, day 7 EPCs, 5 days; read-out: EPC ELISA (pEC50 category) (converted). An outline of the steps: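 Read-out was OD450 from an HRP/TMB sandwich ELISA on lysates, normalized to DMSO-only control wells. Thawed day 7 EPCs from human marrow CD34+ cells had been treated for 5 days at 37° C with Compound A, 22 concentrations […].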

Another experiment concerns the target DNMT1 (Homo sapiens, UniProt P26358). In words: DNMT1 biochemical activity, breaklight assay and/or SPA assay.
[2] abbreviates: binned activity in either the breaklight or the SPA assay.
Where [3] appears, read: binned activity in either the breaklight or the SPA assay, read-out: DNMT1 BioChemical (pIC50 category) (converted).

Each structure is given as a SMILES string. “And” between values parts separate entries of the source, which are not always exact repeats. Equal entries are not always repeated. Where two headings read alike, the source gives them in different places.

Sequence of DNMT1 (P26358 whole entry, looked up): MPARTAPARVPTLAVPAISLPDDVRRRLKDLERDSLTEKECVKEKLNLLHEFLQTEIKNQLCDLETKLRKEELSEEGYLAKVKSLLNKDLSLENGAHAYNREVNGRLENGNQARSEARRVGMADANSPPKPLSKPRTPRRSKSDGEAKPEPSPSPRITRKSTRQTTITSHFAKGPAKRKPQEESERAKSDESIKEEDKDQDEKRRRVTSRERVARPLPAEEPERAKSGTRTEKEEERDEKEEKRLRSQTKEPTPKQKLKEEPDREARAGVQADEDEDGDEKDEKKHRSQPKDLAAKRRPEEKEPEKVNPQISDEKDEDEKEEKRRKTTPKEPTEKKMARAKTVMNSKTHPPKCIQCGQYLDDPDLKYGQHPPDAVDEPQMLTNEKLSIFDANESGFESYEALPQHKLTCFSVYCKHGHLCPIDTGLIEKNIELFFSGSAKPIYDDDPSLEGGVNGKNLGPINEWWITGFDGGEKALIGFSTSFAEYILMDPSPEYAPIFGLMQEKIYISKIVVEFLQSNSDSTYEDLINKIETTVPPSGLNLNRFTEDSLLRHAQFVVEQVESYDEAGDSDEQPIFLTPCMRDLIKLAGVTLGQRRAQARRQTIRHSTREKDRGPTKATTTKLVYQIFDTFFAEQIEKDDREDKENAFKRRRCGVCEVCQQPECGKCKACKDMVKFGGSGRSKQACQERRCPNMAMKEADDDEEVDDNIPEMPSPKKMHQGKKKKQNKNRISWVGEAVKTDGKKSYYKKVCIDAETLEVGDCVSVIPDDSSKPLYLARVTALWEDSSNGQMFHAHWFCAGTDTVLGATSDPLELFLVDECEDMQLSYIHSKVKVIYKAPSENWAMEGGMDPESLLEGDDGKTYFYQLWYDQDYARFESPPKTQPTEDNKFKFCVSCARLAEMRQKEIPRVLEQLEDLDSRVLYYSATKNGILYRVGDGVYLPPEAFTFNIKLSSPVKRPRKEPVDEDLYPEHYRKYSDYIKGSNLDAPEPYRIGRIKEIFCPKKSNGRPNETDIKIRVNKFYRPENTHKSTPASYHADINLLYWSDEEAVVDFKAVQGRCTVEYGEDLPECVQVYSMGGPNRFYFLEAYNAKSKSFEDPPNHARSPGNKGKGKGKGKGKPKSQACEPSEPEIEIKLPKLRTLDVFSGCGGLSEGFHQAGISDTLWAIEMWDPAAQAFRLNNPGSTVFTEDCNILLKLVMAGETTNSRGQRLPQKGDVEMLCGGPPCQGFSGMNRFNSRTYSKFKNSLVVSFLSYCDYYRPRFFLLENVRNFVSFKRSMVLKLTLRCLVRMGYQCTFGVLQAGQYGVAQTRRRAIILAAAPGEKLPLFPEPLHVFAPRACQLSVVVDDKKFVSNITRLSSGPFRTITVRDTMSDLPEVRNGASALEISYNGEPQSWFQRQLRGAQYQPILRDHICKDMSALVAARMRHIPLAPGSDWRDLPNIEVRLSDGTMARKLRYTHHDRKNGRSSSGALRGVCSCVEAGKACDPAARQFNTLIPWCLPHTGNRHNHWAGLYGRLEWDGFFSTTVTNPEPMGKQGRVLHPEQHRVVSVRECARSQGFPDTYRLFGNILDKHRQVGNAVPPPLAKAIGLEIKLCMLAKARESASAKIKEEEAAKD

Regarding `CCc1c(C#N)c(SC(C(N)=O)c2ccccc2)nc(N2CCC(NCC3(C)COC3)CC2)c1C#N` (stereo not shown) [Example 449, 2-((3,5-dicyano-4-ethyl-6-(4-(((3-methyloxetan-3-yl)methyl)amino)piperidin-1-yl)pyridin-2-yl)thio)-2-phenylacetamide], in experiment [1], the EC50 was less than 316 nM. Further, the “DNMT1 BioChemical (pIC50 category)” value at DNMT1 (setting [2]) is reported as “D (Category D: ≥6.5)”.
In the case of `CCc1c(C#N)c(SC(C(N)=O)c2ccccc2)nc(N2C[C@@H](O)[C@@H](O)C2)c1C#N` (stereo partly drawn) [Example 219, 2-((3,5-Dicyano-6-((3S,4R)-3,4-dihydroxypyrrolidin-1-yl)-4-ethylpyridin-2-yl)thio)-2-phenylacetamide], in experiment [1], the EC50 is 1000 to 31600 nM. The IC50 at DNMT1 (setting [3]) was 316 to 1000 nM.
Regarding `CCc1c(C#N)c(S[C@@H](C(N)=O)c2ccccc2)nc(N(C)CC(N)=O)c1C#N` (single isomer, unassigned) [Example 413, 2-((6-((2-amino-2-oxoethyl)(methyl)amino)-3,5-dicyano-4-ethylpyridin-2-yl)thio)-2-phenylacetamide], the EC50 in experiment [1] is less than 316 nM. Moreover, the IC50 on DNMT1 (setting [3]) was less than 316 nM.
For `CCc1c(C#N)c(SC(C(N)=O)c2ccc(F)cc2)nc(N2CC[C@H](O)C2)c1C#N` (stereo partly drawn) [Example 427, 2-((3,5-dicyano-4-ethyl-6-((S)-3-hydroxypyrrolidin-1-yl)pyridin-2-yl)thio)-2-(4-fluorophenyl) acetamide], the EC50 in experiment [1] is 316 to 1000 nM. The “DNMT1 BioChemical (pIC50 category)” value on DNMT1 (setting [2]) is listed as “D (Category D: ≥6.5)”.
Take `CCc1c(C#N)c(SCc2ccc(CN)cc2)nc(N2CCC(N3CCCC3)CC2)c1C#N` [Example 68, 2-(4-(Aminomethyl)benzylthio)-4-ethyl-6-(4-(pyrrolidin-1-yl)piperidin-1-yl)pyridine-3,5-dicarbonitrile 2,2,2-trifluoroacetate]: the EC50 in experiment [1] is more than 31600 nM. Moreover, the IC50 at DNMT1 (setting [3]) is 316 to 1000 nM.
Turning to `N#Cc1c(SC(C(N)=O)c2ccccc2)nc(N2CCCC(NCC(=O)O)C2)c(C#N)c1C1CC1` (stereo not shown) [Example 175, 2-((1-(6-((2-Amino-2-oxo-1-phenylethyl)thio)-3,5-dicyano-4-cyclopropvlpyridin-2-yl)piperidin-3-yl)amino)acetic acid], in experiment [1], the EC50 was more than 31600 nM. In addition, the IC50 on DNMT1 (setting [3]) is 316 to 1000 nM.
`CCc1c(C#N)c(SCc2ccc(N3CCN(C)CC3)cc2)nc(N2CCCN(C)CC2)c1C#N` [Example 384, 4-Ethyl-2-(4-methyl-1,4-diazepan-1-yl)-6-((4-(4-methylpiperazin-1-yl)benzyl)thio)pyridine-3,5-dicarbonitrile]: the EC50 in experiment [1] is more than 31600 nM. For the same compound, at DNMT1 (setting [3]), the IC50 is 316 to 1000 nM.
As for `CCc1c(C#N)c(SC(C(N)=O)c2ccccc2)nc(N(C)CCN2CC[C@@H](O)C2)c1C#N` (stereo partly drawn) [Example 494, 2-(3,5-dicyano-4-ethyl-6-((2-((R)-3-hydroxypyrrolidin-1-yl)ethyl)(methyl)amino)pyridin-2-ylthio)-2-phenylacetamide], in experiment [1], the EC50 is less than 316 nM. Further, the “DNMT1 BioChemical (pIC50 category)” value on DNMT1 (setting [2]) is on record as “D (Category D: ≥6.5)”.
In the same order, the values of `CCc1c(C#N)c(SCc2ccc(N(C)S(C)(=O)=O)cc2)nc(N(C)CCN2CCCCC2)c1C#N` [Example 577, N-(4-(((3,5-dicyano-4-ethyl-6-(methyl(2-(piperidin-1-yl)ethyl)amino)pyridin-2-yl)thio)methyl)phenyl)-N-methylmethanesulfonamide] are less than 316 nM and “D (Category D: ≥6.5)”.
Take `CCc1c(C#N)c(SC(C(N)=O)c2ccccc2)nc(N2CCC(CN)C2)c1C#N` (stereo not shown) [Example 525, 2-((6-(3-(aminomethyl)pyrrolidin-1-yl)-3,5-dicyano-4-ethylpyridin-2-yl)thio)-2-phenylacetamide]: the EC50 in experiment [1] is less than 316 nM. Also, the “DNMT1 BioChemical (pIC50 category)” value on DNMT1 (setting [2]) was “D (Category D: ≥6.5)”.
As to `CCc1c(C#N)c(SC(C(N)=O)c2ccccc2)nc(N2CCN(Cc3cnc[nH]3)CC2)c1C#N` (stereo not shown) [Example 188, 2-((6-(4-((1H-lmidazol-5-yl)methyl)piperazin-1-yl)-3,5-dicyano-4-ethylpyridin-2-yl)thio)-2-phenylacetamide], the EC50 in experiment [1] was 1000 to 31600 nM. On DNMT1 (setting [3]), the IC50 is 316 to 1000 nM.
For `CCc1c(Cl)c(SC(C(N)=O)c2ccccc2)nc(N2CCNCC2)c1Cl` (stereo not shown) [Example 324, 2-((3,5-Dichloro-4-ethyl-6-(piperazin-1-yl)pyridin-2-yl)thio)-2-phenylacetamide], the EC50 in experiment [1] is more than 31600 nM. Besides, the IC50 is 316 to 1000 nM against DNMT1 (DNMT1 BioChemical (pIC50 category), binned activity in either the breaklight or the SPA assay); 316 to 1000 nM and 631 nM against DNMT1 (average pIC50 against DNMT1, breaklight assay and/or SPA assay, repeated experimental runs).
`CCc1c(C#N)c(SC(C(N)=O)c2ccccc2)nc(N(C)CC(=O)N2C[C@@H](O)[C@H](O)C2)c1C#N` (stereo partly drawn) [Example 653, 2-((3,5-dicyano-6-((2-((3R,4R)-3,4-dihydroxypyrrolidin-1-yl)-2-oxoethyl)(methyl)amino)-4-ethylpyridin-2-yl)thio)-2-phenylacetamide]: the EC50 in experiment [1] is 1000 to 31600 nM. The “DNMT1 BioChemical (pIC50 category)” value on DNMT1 (setting [2]) is recorded as “D (Category D: ≥6.5)”.
The matching figures for `CCc1c(C#N)c(SC(C(N)=O)c2ccccc2)nc(N2CCC[C@@H](CNCC(C)(C)C)C2)c1C#N` (stereo partly drawn) [Example 568, 2-((3,5-dicyano-4-ethyl-6-((S)-3-((neopentylamino)methyl)piperidin-1-yl)pyridin-2-yl)thio)-2-phenylacetamide]: less than 316 nM and “D (Category D: ≥6.5)”.
Take `N#Cc1c(SC(C(N)=O)c2ccccc2)nc(N2CCNC(=O)CC2)c(C#N)c1C1CC1` (stereo not shown) [Example 110, 2-{[3,5-Dicyano-4-cyclopropyl-6-(5-oxo-1,4-diazepan-1-yl)pyridin-2-yl]sulfanyl}-2-phenylacetamide]: the EC50 in experiment [1] was 1000 to 31600 nM. The IC50 at DNMT1 (setting [3]) was 316 to 1000 nM; at DNMT1 (breaklight assay and/or SPA assay, repeated experimental runs, read-out: average pIC50 against DNMT1 (converted)), 316 to 1000 nM.
For the compound `CCc1c(C#N)c(SCc2ccc(S(N)(=O)=O)cc2)nc(N2CCC(N)CC2)c1C#N` [Example 345, 4-(((6-(4-Aminopiperidin-1-yl)-3,5-dicyano-4-ethylpyridin-2-yl)thio)methyl) benzenesulfonamide], the EC50 in experiment [1] is 1000 to 31600 nM. The “DNMT1 BioChemical (pIC50 category)” value at DNMT1 (setting [2]) is given as “D (Category D: ≥6.5)”.
As for `CCc1c(C#N)c(SC(C(N)=O)c2ccccc2)nc(N2CC3NCCOC3C2)c1C#N` (stereo not shown) [Example 204, 2-((3,5-Dicyano-4-ethyl-6-(hexahydropyrrolo[3,4-b][1,4]oxazin-6(2H)-yl)pyridin-2-yl)thio)-2-phenylacetamide], the EC50 in experiment [1] is 1000 to 31600 nM. The IC50 at DNMT1 (setting [3]) was 316 to 1000 nM.
As to `CCc1c(C#N)c(SCc2ccc(N(C)S(C)(=O)=O)cc2)nc(N(C)CCN2CCCC2)c1C#N` [Example 570, N-(4-(((3,5-dicyano-4-ethyl-6-(methyl(2-(pyrrolidin-1-yl)ethyl)amino)pyridin-2-yl)thio)methyl)phenyl)-N-methylmethanesulfonamide], in experiment [1], the EC50 is less than 316 nM. For the same compound, the “DNMT1 BioChemical (pIC50 category)” value on DNMT1 (setting [2]) was “D (Category D: ≥6.5)”.
Consider `CCc1c(C#N)c(SC(C(N)=O)c2ccccc2)nc(N(C)CC(=O)N2CC[C@@H](O)C2)c1C#N` (stereo partly drawn) [Example 613, 2-((3,5-dicyano-4-ethyl-6-((2-((R)-3-hydroxypyrrolidin-1-yl)-2-oxoethyl)(methyl)amino)pyridin-2-yl)thio)-2-phenylacetamide], for which the EC50 in experiment [1] is less than 316 nM. On DNMT1 (setting [2]), the “DNMT1 BioChemical (pIC50 category)” value is given as “D (Category D: ≥6.5)”.
With `CCc1c(C#N)c(SCc2ccc(N)nc2)nc(N2CCCN(C)CC2)c1C#N` [Example 300, 2-(((6-Aminopyridin-3-yl)methyl)thio)-4-ethyl-6-(4-methyl-1,4-diazepan-1-yl)pyridine-3,5-dicarbonitrile], the EC50 in experiment [1] was 1000 to 31600 nM. Also, at DNMT1 (setting [3]), the IC50 is 316 to 1000 nM.
In the case of `CCc1c(C#N)c(SC(C(N)=O)c2ccccc2)nc(N2CCC(NC(=O)C3(N)COC3)CC2)c1C#N` (stereo not shown) [Example 186, 3-Amino-N-(1-(6-((2-amino-2-oxo-1-phenylethyl)thio)-3,5-dicyano-4-ethylpyridin-2-yl)piperidin-4-yl)oxetane-3-carboxamide], the EC50 in experiment [1] is 1000 to 31600 nM. Further, the “DNMT1 BioChemical (pIC50 category)” value at DNMT1 (setting [2]) is recorded as “D (Category D: ≥6.5)”.
With `CCc1c(C#N)c(SCc2ccc(CNC(=O)CNC)cc2)nc(N2CCCN(C)CC2)c1C#N` [Example 358, N-(4-(((3,5-Dicyano-4-ethyl-6-(4-methyl-1,4-diazepan-1-yl)pyridin-2-yl)thio)methyl)benzyl)-2-(methylamino)acetamide], the EC50 in experiment [1] was more than 31600 nM. The “DNMT1 BioChemical (pIC50 category)” value at DNMT1 (setting [2]) is given as “D (Category D: ≥6.5)”.
As for `CCc1c(C#N)c(SCc2ccc(CNCCO)cc2)nc(N2CCCN(C)CC2)c1C#N` [Example 90, 4-Ethyl-2-((4-(((2-hydroxyethyl)amino)methyl)benzyl)thio)-6-(4-methyl-1,4-diazepan-1-yl)pyridine-3,5-dicarbonitrile], the EC50 in experiment [1] is more than 31600 nM. For the same compound, the IC50 on DNMT1 (setting [3]) was 316 to 1000 nM.
Regarding `CCc1c(C#N)c(SC(C(N)=O)c2ccccc2)nc(N2CCC(N3CCCC3)CC2)c1C#N` (stereo not shown) [Example 411, 2-((3,5-Dicyano-4-ethyl-6-(4-(pyrrolidin-1-yl)piperidin-1-yl)pyridin-2-yl)thio)-2-phenylacetamide], the EC50 in experiment [1] was less than 316 nM. Further, the “DNMT1 BioChemical (pIC50 category)” value on DNMT1 (setting [2]) is given as “D (Category D: ≥6.5)”.
Regarding `CCc1c(C#N)c(SC(C(N)=O)c2ccccc2)nc(N(C)CC(=O)NC[C@@H](O)CO)c1C#N` (stereo partly drawn) [Example 666, 2-((6-((2-amino-2-oxo-1-phenylethyl)thio)-3,5-dicyano-4-ethylpyridin-2-yl)(methyl)amino)-N-((R)-2,3-dihydroxypropyl)acetamide], in experiment [1], the EC50 was 1000 to 31600 nM. Further, on DNMT1 (setting [2]), the “DNMT1 BioChemical (pIC50 category)” value is reported as “D (Category D: ≥6.5)”.
